This note sets out measurements from patent US5500358A, “Antibody catalysis of cyclohexadienone rearrangments” (The Scripps Research Institute, priority 1994, dated 1996).

The assay concerns catalytic monoclonal antibody 62C7 (anti-13.3), secreted by hybridoma 62C7, ATCC HB11703. The assay can be described thus: Antibody-catalyzed dienone-phenol rearrangement of 7 to 8, product formation followed by reverse-phase HPLC. It is filed as biochemical, Balb/c mice. The method, then: The KLH conjugates of haptens 13.3, 13.4, and 13.5 were then employed to inoculate Balb/c mice and antibodies were generated by standard protocols. (G. Kohler et al. Nature (1975), vol. 265, page 495.) Monoclonal antibodies were purified from ascites fluid by anion exchange chromatography and assayed against substrate 7 for production of the phenol product 8. Fourteen anti-13.3, twenty two anti-13.4, and twenty one anti-13.5 antibodies were assayed for catalysis of the rearrangement reaction converting dienone substrate 7 to phenol product 8. […] Assay condition employed […] in 100 mM NaCl, 50 mM of either bistris(bis(hydroxyethyl)-tris(hydroxymethyl)aminomethane) or 1,3-bis[tris (hydroxymethyl)aminopropane at 37° C. Product formation was followed by reverse-phase HPLC (Vydac C-18 218TP54 column (0.45×22 cm) at a flow rate of 1.5 milliliters/minute using 28% CH3 CN and 72% H2 O+0.1% CF3 COOH. Retention time tR for substrate 7 was 5.02 minutes. Retention time tR for product 8 was 7.14 minutes. The pD (98%) D2 O) values were obtained by adding 0.4 to the pH-electrode reading. […] Antibody 62C7 (anti-13.3) was characterized in detail.
FIG. 3 illustrates the pH-profile of the rearrangement reaction in the presence of catalytic antibody 62C7 (anti-13.3) and without. Background rates are determined in H2 O and in D2 O. The lines are caluclated from the following equations respectively:
kcat =kcat °+kcatH -[H3 O^30 ]^0.92 ;
kH2O =k°+kH +[H3 O^30 ]; kD2O
Accordingly, FIG. 3 illustrates both the antibody 62C7 catalyzed and the background reactions proceed via a hydronium ion catalyzed pathway, viz. kcatH+ =0.176/Mole second, H+ =1.51×10^-3 /Mole second. […] This is consistent with pre-equilibrium protonation of substrate 7 to form a first intermediate 10. This reaction probably reflects the spontaneous rearrangement of substrate 7 to the conjugate base of a second intermediate 12. This rearrangement reaction probably also occurs when substrate 7 is complexed with anti-13.3, i.e., second intermediate 12 is formed within the antibody complex. Importantly, a small inverse secondary isotope effect is observed in all cases at position C(3) of the dienone, viz., kcatH /kCatD =0.88 at pH=5.75, kH /kD =0.88-0.94 from pH=2.95 to 9.54. […] Accordingly, the rate determining step is the […]. (V. Vitullo et al., J. Am. Chem. Soc. (1974), vol. 94, page 3844.) Although this carbon hydrogen bond is ultimately broken to yield the product phenol 8, it is not involved in the rate determining step as this would have given rise to a large, normal isotope effect at that position.

[1] abbreviates: pH 5.75, 37° C., 100 mM NaCl, 50 mM buffer.

One may read the kcat as the maximal rate divided by the concentration of active sites. Broadly, the Km is the substrate concentration at which the rate is half of its maximum. Turning to `[2H]C1=C(C)C(=O)C(C)=C([2H])C1(Cc1ccc(C(=O)NCCO)cc1)OC` [Compound 7-d2], for the setting “pH 5.75, 37° C.”, the kcat came to 1.37e-06 s⁻¹ and the kcat / kuncat worked out at 80. Moreover, under setting [1], the Km amounted to 770 µM.

Regarding `COC1(Cc2ccc(C(=O)NCCO)cc2)C=C(C)C(=O)C(C)=C1` [Compound 7], for the setting “from pH-profile, FIG. 3”, the “kcatH+ (hydronium ion catalyzed pathway of the antibody reaction)” value is 0.176 mol⁻¹ s⁻¹. For the same compound, the Km runs as follows: (in D2O, pD 7.07, 37° C.) 1300 µM; under setting [1], 670 µM; (pH 7.07, 37° C., H2O) 1200 µM. Moreover, the kcat runs as follows: (in D2O, pD 7.07, 37° C.) 1.25e-06 s⁻¹; (pH 5.75, 37° C.) 1.22e-06 s⁻¹; (pH 7.07, 37° C., H2O) 1.25e-06 s⁻¹. Moreover, the kcat / kuncat by setting is: (in D2O, pD 7.07, 37° C.) 95; (pH 5.75, 37° C.) 80; (pH 7.07, 37° C., H2O) 90. For the setting “pH=5.75, 7 versus 7-d2”, the “kcatH /kCatD (secondary isotope effect at position C(3) of the dienone)” value is given as 0.88.
